Reference: PubChem BioAssay AID2745 (NMMLSC, 2010)
Activity calls are given as the source filed them. How the calls were made is not given here.

Assay: concentration series on yeast TOR reporter LAP4 – cell-based, MLPCN hits, flow cytometry, dose response (AID 2745);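 further: yeast exposed to compound for three hours at 30 degrees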
Settings: S. cerevisiae LAP4-GFP reporter, flow cytometry fluorescence; at 33 µM (top of the series)

| SMILES | LAP4-GFP fluorescence (kMESF) |
| --- | --- |
| C=CCOc1ccc(C(=O)/C=C2/C(=O)Nc3ccccc32)cc1 | 7.99 kMESF (inactive) |
| CCCN1CCc2c(sc(NC(=S)NC(=O)c3ccccc3)c2C#N)C1 | 7.91 kMESF (inactive) |
| O=C(NOC(=O)c1ccccc1)c1ccccc1 | 10.6 kMESF (inactive) |
| Oc1ccc2ccccc2c1/C=N/Nc1nnc(-c2ncc[nH]2)c2ccccc12 | -7.45 kMESF (inactive) |
| CC(C)CC(=O)NC(=S)Nc1nc(-c2ccccc2)cs1 | 3.44 kMESF (inactive) |
| CCCc1cc(N2CCN(c3ccccn3)CC2)n2nc(C)c(-c3ccccc3)c2n1 | 5.75 kMESF (inactive) |
| O=C1N(c2ccccc2C(F)(F)F)O[C@@]1(c1ccccc1)C1CCCCC1 | 2.73 kMESF (inactive) |
| COc1ccc(OC)c(S(=O)(=O)ON2C(=O)c3ccccc3C2=O)c1 | 1.75 kMESF (inactive) |
| O=C(Sc1cccc2cccnc12)c1ccccc1Br | 18.8 kMESF (inactive) |
| CS(=O)(=O)c1sc(C#N)c2c1C(=O)CC(c1ccccc1)C2 (configuration not stated) | 14.6 kMESF (inactive) |
| Cc1ccccc1OCCOC(=O)c1ccc(S(=O)(=O)N2CCCC2)cc1 | 3.13 kMESF (inactive) |
| Cc1ccc(-c2nn(C(C)(C)C)c3ncnc(N)c23)cc1 | 8.82 kMESF (inactive) |
| C=CCOc1cccc(C(=O)/C=C2/C(=O)Nc3ccccc32)c1 | 8.61 kMESF (inactive) |
| CC(C)[C@@]1(c2ccc(Cl)cc2)ON(c2ccccc2C(F)(F)F)C1=O | 3.53 kMESF (inactive) |
| CC(C)C[C@]1(c2ccccc2)ON(c2ccccc2C(F)(F)F)C1=O | 2.53 kMESF (inactive) |
| CCOc1ccc(NC2=C(Cl)C(=O)N(Cc3ccccc3)C2=O)cc1 | 6.11 kMESF (inactive) |
| COc1ccc2c(/C=C/c3cc[n+](C)cc3)c[nH]c2c1 | 3.71 kMESF (inactive) |
| O=c1oc(/C=C/c2ccc([N+](=O)[O-])s2)nc2ccccc12 | 12.6 kMESF (inactive) |
| Cc1cc(C)c(OCC(=O)Nc2nc(-c3ccccn3)cs2)c(C)c1 | 5.78 kMESF (inactive) |
| CC(C)(C)C1C/C(=C/c2ccccn2)C(=O)/C(=C/c2ccccn2)C1 (configuration not stated) | 4.25 kMESF (inactive) |
| O=C1C=C(Nc2ccc(Cl)cc2)C(=O)N1c1ccc(Cl)cc1 | 3.03 kMESF (inactive) |
| COc1ccc(-c2cc3cc(C(=O)O)ccn3c2C(=O)c2ccccc2)cc1 | 6.45 kMESF (inactive) |

| SMILES | LAP4-GFP fluorescence (kMESF) |
| --- | --- |
| CC1(C)OC(c2ccccc2)=C/C(=C/C=C2C(=O)NC(=S)NC2=O)O1 | 3.03 kMESF (inactive) |
| CC1=C/C(=N\OS(=O)(=O)c2ccccc2)C(C)=CC1=O | 4.1 kMESF (inactive) |
| CS(=O)(=O)N1N=C(c2ccccc2)CC1c1ccc2c(c1)OCO2 (configuration not stated) | -20.2 kMESF (inactive) |
| O=[N+]([O-])c1c(Nc2ccccn2)cc(Cl)c2nonc12 | 36.2 kMESF (inactive) |
| CCCOc1ccc(C(=O)NNC(=S)NC(=O)c2ccccc2)cc1 | 8.22 kMESF (inactive) |
| O=C(Oc1cccc2cccnc12)c1ccc(Br)o1 | 3.74 kMESF (inactive) |
| Cc1ccc(C2=NN(S(C)(=O)=O)C(c3ccc4c(c3)OCO4)C2)cc1 (configuration not stated) | 4.78 kMESF (inactive) |
| Cn1ncc2c(O/N=C(\N)c3ccc(C(C)(C)C)cc3)ncnc21 | 5.61 kMESF (inactive) |
| COc1ccc(N=Cc2nc(-c3ccccc3)oc2OC(C)=O)cc1 | 4.93 kMESF (inactive) |
| COc1cc(/C=C2/C(=O)c3cccc([N+](=O)[O-])c3C2=O)c(Br)cc1O | 3.64 kMESF (inactive) |
| CC(Oc1cc2oc(=O)c3c(c2cc1Cl)CCC3)C(=O)NCCN1CCOCC1 (configuration not stated) | 2.43 kMESF (inactive) |
| O=c1[nH]c(-c2ccc(Cl)cc2)cs1 | 3.03 kMESF (inactive) |
| O=C1c2ccccc2C(=O)N1OS(=O)(=O)c1ccccc1 | 8.7 kMESF (inactive) |
| Cc1ccc(C(=O)Oc2oc(-c3ccccc3)nc2C=Nc2ccc(N(C)C)cc2)cc1 | 6.02 kMESF (inactive) |
| Cc1ccc(C(=O)O/N=C(\N)Cc2cccs2)c(Cl)c1 | 13.1 kMESF (inactive) |
| O=C(/C=C/c1ccc(Br)cc1)NC(=S)NNC(=O)c1ccco1 | 5.87 kMESF (inactive) |
| CCCc1nnc(NC(=O)c2c(O)c3cccc4c3n(c2=O)CCC4)s1 | 0.3 kMESF (inactive) |
| CC(C)(C)C(=O)NC(=S)NNC(=O)c1sc2ccccc2c1Cl | 8.89 kMESF (inactive) |
| O=C(O)c1cccc(S(=O)(=O)Nc2ccc(S(=O)(=O)N3CCOCC3)cc2)c1 | 3.38 kMESF (inactive) |
| COc1ccccc1-c1nc2s/c(=C\c3cccs3)c(=O)n2n1 | 5.46 kMESF (inactive) |
| Cc1cccc(OCCN2CSC(=S)N(C)C2)c1 | 9.83 kMESF (inactive) |
| COc1cc(/C=C2\CC/C(=C\c3cc(OC)c(O)c(OC)c3)C2=O)cc(OC)c1O | 2.53 kMESF (inactive) |

| SMILES | LAP4-GFP fluorescence (kMESF) |
| --- | --- |
| COc1cc(C=C2C(=O)c3ccccc3C2=O)cc(OC)c1 | 4.28 kMESF (inactive) |
| COc1cc(CNC(=O)CCCCCCC(C)C)ccc1O | 3.74 kMESF (inactive) |
| N#C/C(=C\c1ccccn1)c1nc2ccccc2s1 | 15.1 kMESF (inactive) |
| O=[N+]([O-])c1ccc(-c2cn3nc(-c4ccccc4)c(-c4ccccc4)nc3n2)cc1 | 9.37 kMESF (inactive) |
| CCc1cccc2sc(N3CCN(C(=O)c4ccc([N+](=O)[O-])o4)CC3)nc12 | -0.3 kMESF (inactive) |
| O=c1c2sc(-c3ccccc3)cc2nc2n1CCC2 | 5.96 kMESF (inactive) |
| CC[C@@]1(c2ccccc2OC)ON(c2ccccc2C(F)(F)F)C1=O | 6.51 kMESF (inactive) |
| C=CCOc1ccccc1C(=O)/C=C1/C(=O)Nc2ccccc21 | 10.2 kMESF (inactive) |
| Cc1ccc(S(=O)(=O)N2CC(C(=O)O)=CC[C@H]2c2ccc(Cl)cc2)cc1 | 4.05 kMESF (inactive) |
| COc1ccccc1N1C(=O)c2cccc3c(C(=O)O)ccc(c23)C1=O | 6.85 kMESF (inactive) |
| O=C(NC(=S)Nc1ccc2oc(=O)ccc2c1)c1cccc(Cl)c1 | 3.47 kMESF (inactive) |
| O=C(CSC1=NS(=O)(=O)c2ccccc21)Nc1ccccc1 | 7.82 kMESF (inactive) |
| Cc1cc(O)c(C(=O)/C=C/c2c(F)c(F)c(F)c(F)c2F)c(=O)o1 | 7 kMESF (inactive) |
| CN(C)c1ccc(/C=C/c2cc[n+](C)cc2)cc1 | 1.33 kMESF (inactive) |
| CCC(=O)Nc1ccc(NC(=O)c2cc3ccccc3o2)cc1 | 3.31 kMESF (inactive) |
| CC1=C(C)/C(=N\OS(=O)(=O)c2ccccc2)C=CC1=O | 9.73 kMESF (inactive) |
| Cc1ccc(/C=C2\SC(=S)N(CC3CCCO3)C2=O)o1 (configuration not stated) | 4.89 kMESF (inactive) |
| CS(=O)(=O)c1nc(-c2ccccc2)cc(C(F)(F)F)n1 | 16.6 kMESF (inactive) |
| COc1ccc(C(=O)/C=C2/C(=O)Nc3ccccc32)cc1OC | 4.19 kMESF (inactive) |
| COc1ccc(C2(C)ON(c3ccccc3C(F)(F)F)C2=O)cc1 (configuration not stated) | 6.61 kMESF (inactive) |
| COc1cccc(/C=C2\C(=O)N(c3cccc(C)c3)C(=O)c3ccccc32)c1 | 9.02 kMESF (inactive) |
| O=C(Nc1nnc(-c2ccc(F)cc2)o1)c1cccc([N+](=O)[O-])c1 | 6.91 kMESF (inactive) |

| SMILES | LAP4-GFP fluorescence (kMESF) |
| --- | --- |
| O=c1c2cc(Br)ccc2nc(-c2ccc([N+](=O)[O-])cc2)n1O | 6.81 kMESF (inactive) |
| CC(=O)N(C(C)=O)c1ncnc2c1c(-c1ccc(Cl)cc1)nn2C(C)(C)C | 3.97 kMESF (inactive) |
| COc1cc(N=c2ssnc2Cl)cc(OC)c1 | 11.3 kMESF (inactive) |
| CN(C)c1ccc(N=Cc2nc(-c3ccccc3)oc2OC(=O)c2ccccc2)cc1 | 4.09 kMESF (inactive) |
| Cc1ccccc1[C@]1(C)ON(c2ccccc2C(F)(F)F)C1=O | 3.24 kMESF (inactive) |
| C#CCOCCOCCOCCNc1nc(N2CCN(C(=O)CCCCCCCCCCNC(=O)[C@@H](CCC(=O)O)n3cc(CCCCCN)nn3)CC2)nc(N2CCN(C(=O)CCCCCCCCCCNC(=O)[C@H](CCCCN)n3cc(C[C@@H](C)CC)nn3)CC2)n1 | 6.47 kMESF (inactive) |
| CC(=O)Oc1ccc(N2C(=O)C3C4C=CC(O4)C3C2=O)cc1 (configuration not stated) | 6.57 kMESF (inactive) |
| CC(C)(C)c1cc(C(c2cccnc2)N2CCN(CCO)CC2)cc(C(C)(C)C)c1O (configuration not stated) | 7.26 kMESF (inactive) |
| O=C(COc1ccccc1)NNC(=S)NC(=O)c1ccccc1 | 4.36 kMESF (inactive) |
| O=C1N(c2ccccc2C(F)(F)F)O[C@@]1(c1ccccc1)C1CCCC1 | 2.93 kMESF (inactive) |
| O=C1C(Cl)=C(NCCc2ccccc2)C(=O)N1CCc1ccccc1 | 5.91 kMESF (inactive) |
| O=C1c2sc3nc4ccccc4n3c2C(=O)N1c1ccccc1Cl | 3.64 kMESF (inactive) |
| Cc1ccc(NC(=O)c2cc(N3C(=O)C=CC3=O)ccc2N2CCOCC2)cc1Cl | 10.5 kMESF (inactive) |
| CCCS(=O)(=O)c1nnnn1-c1cccc(OC)c1 | 18.2 kMESF (inactive) |
| CCc1nc2ccccc2c(=O)n1NC(=O)c1c(O)c2ccccc2n(CC)c1=O | 3.31 kMESF (inactive) |
| COc1cc(NC(=O)c2cccc(C)c2)ccc1NC(=O)c1cc2ccccc2o1 | 3.31 kMESF (inactive) |
| Cc1cc(Br)c2c(c1)/C(=C/C(=O)c1cccs1)C(=O)N2 | 6.22 kMESF (inactive) |
| O=S(=O)(/N=C(\Sc1ccc(Cl)cc1)c1ccccc1)c1ccccc1 | 12.4 kMESF (inactive) |
| Cc1nn(C)c(C)c1N1C(=O)c2cccc3c(Br)ccc(c23)C1=O | 5.85 kMESF (inactive) |
| Cc1cc2ccccn2c1C(=O)c1ccc([N+](=O)[O-])o1 | -3.89 kMESF (inactive) |
| O=C1C(Cl)=C(N2CCN(Cc3ccccc3)CC2)C(=O)N1c1ccccc1 | 4.11 kMESF (inactive) |
